Source: patent US20240217932A1, “PYRIDIUM ESTERS” (The Procter & Gamble Company, priority 2022, published 2024)

What was measured:
staphylococcus aureus = experiment: Surface Antimicrobial Kill Testing Method, activity normalized to triclosan internal standard (Gram positive); format: cell-based
Method: (§1) Inoculum is prepared by streaking microorganism onto a Tryptic Soy Agar (TSA) plate and incubating for 24 h at 33° C. Plated bacteria is resuspended in saline until the transmittance percentage falls within the accepted range for ˜10^8 cfu/mL. For K. pneumonia (Kp) and P. aeruginosa (Pa), this is 31.00-33.00% T. For S. aureus (Sa) this is 23.00-25.00% T. A 10× concentration is made by spinning down the prepared inoculum, removing the supernatant saline from the bacterial pellet, then resuspending the pellet in 1/10th of the original volume of saline. The final inoculum is prepared with 5% of “soil” in the form of Fetal Bovine Serum (FBS).
(§2) A 18×18 mm sterile glass coverslip is placed into an appropriate container (e.g. petri dish). 20 μL of prepared inoculum is added to the glass coverslip. Inoculum is then air-dried for 30 minutes in a 36° C. incubator. After drying, 40 μL of test sample is added on top of the dried inoculum. This is incubated at room temperature for the desired contact time. 5 mL of neutralizing media (Modified Letheen Broth+Tween+Lecithin (MLBTL)) is added to the coverslip and shaken on an orbital shaker for 5 minutes to ensure proper neutralization and extraction. Viability is then assessed of the neutralized and extracted sample by traditional/alternative microbiological techniques.
(§3) The normalized antimicrobial activity reported in the performance examples below was generated from detection time data obtained as described in the Surface Antimicrobial Kill Test Method. To account for day-to-day variability an internal standard was tested with each series. The internal standard was a composition of 0.25 wt % Triclosan, Sigma Aldrich (St. Louis, MO, USA; CAS #3380-34-5, 97.0-103.0% (active substance, GC)), 50 wt % DMSO, and 49.75 wt % H2O, with a final solution pH of 7.7. Normalized activity is reported following the equation 1 below.
(§4) Normalized Activity=(αΔDT-βΔDT)/(γΔDT-βΔDT) equation 1.
(§5) where, αΔDT is the average detection time of the antimicrobial compound, and γΔDT is the average detection time of the reference triclosan internal standard, and βΔDT is the average detection time of the background unperturbed bacteria.
(§6) Pyridinium esters of the present disclosure were tested as aqueous solutions in the Surface Antimicrobial Kill Testing Method above. To prepare test solutions pyridinium esters were first dissolved in the appropriate solvent. Second the selected surfactant is added to the mixture. After vortex (1 min, Vortex-2 Genie, vortex speed 8) mixing, the samples were then diluted with ½ portion of reverse osmosis water (RO water, Millipore Direct-Q™, pH 6). The aqueous solution was then vortexed (1 min, Vortex-2 Genie, vortex speed 8), to which the second ½ portion of water is added. The pH of the solution was then adjusted to the target pH using either 1N HCl, Glacial Acetic Acid, or 1N NaOH. The final solution was then vortexed (1 min, Vortex-2 Genic, vortex speed 8). An example batch sheet is provided below in Table 1.
(§7) In Performance Examples 1-4 below, formulations comprising solvent, surfactant, and pyridinium esters according to the present disclosure (e.g., based on hexyl 3-(alkylpyridinium)acrylate halides), are evaluated via microbial surface kill tests according to the Surface Antimicrobial Kill Testing Method provided above. After treatment, microbial growth is referenced and reported to a triclosan sample and unaltered microbes according to the Normalization of Antimicrobial Activity provided above.

[1] = Stability of the isolated solid by 1H NMR; format: physicochemical
Gram Negative bacteria = experiment: Surface Antimicrobial Kill Testing Method, activity normalized to triclosan internal standard (Gram negative); format: cell-based; conditions: water, pH 7
Method: as §1, §2, §3, §4, §5, §6, §7

[2] = 0.5 wt % compound, 3 wt % DEGBE, 1 wt % EcoSurf EH-9, 95.5 wt % reverse osmosis water, pH 7

CCCCCCOC(=O)/C=C/c1ccc[n+](C)c1.[I-] [Synthetic Example 3, hexyl 3-(3-methylpyridinium)acrylate iodide]
Gram Positive Referenced Microbial Activity (staphylococcus aureus; [2]): 0.21
Stability of the independent solid by 1H NMR [1]: stable for several months

CCCCCCOC(=O)/C=C/c1cc[n+](C)cc1.[I-] [Synthetic Example 4, hexyl 3-(4-methylpyridinium)acrylate iodide]
Gram Positive Referenced Microbial Activity (staphylococcus aureus; [2]): 1.2
Stability of the independent solid by 1H NMR [1]: stable for several months

CCCCCCCC[n+]1ccc(/C=C/C(=O)OCCCCCC)cc1.[Br-] [Synthetic Example 8, hexyl 3-(4-octylpyridinium)acrylate bromide]
Gram Positive Referenced Microbial Activity (staphylococcus aureus; [2]): >1.33
Stability of the independent solid by 1H NMR [1]: stable for several months

CCCCCCOC(=O)/C=C/c1ccc[n+](CCCCCC)c1.[Br-] [Synthetic Example 5, hexyl 3-(3-hexylpyridinium)acrylate bromide]
Gram Positive Referenced Microbial Activity (staphylococcus aureus; 0.063 wt % Synthetic Example 5, 1 wt % EcoSurf EH9, 3 wt % DEGBE, water, pH 7): 0.55
Gram Positive Referenced Microbial Activity (staphylococcus aureus; 0.125 wt % Synthetic Example 5, 1 wt % EcoSurf EH9, 3 wt % DEGBE, water, pH 7): 0.93
Gram Positive Referenced Microbial Activity (staphylococcus aureus; 0.25 % Synthetic Example 5, 1 wt % Crodasinic LS30, 3 wt % DEGBE, water, pH 7): 0.42
Gram Positive Referenced Microbial Activity (staphylococcus aureus; 0.25 % Synthetic Example 5, 1 wt % EH6, 3 wt % DEGBE, water, pH 7): 1.09
Gram Positive Referenced Microbial Activity (staphylococcus aureus; 0.25 % Synthetic Example 5, 1 wt % L24-9, 3 wt % DEGBE, water, pH 7): 0.54
Gram Positive Referenced Microbial Activity (staphylococcus aureus; 0.25 % Synthetic Example 5, 1 wt % Miranol Ultra, 3 wt % DEGBE, water, pH 7): 0.78
Gram Positive Referenced Microbial Activity (staphylococcus aureus; 0.25 % Synthetic Example 5, 1 wt % Plantaren 2000, 3 wt % DEGBE, water, pH 7): >2.33
Gram Positive Referenced Microbial Activity (staphylococcus aureus; 0.25 % Synthetic Example 5, 1 wt % SLS, 3 wt % DEGBE, water, pH 7): 0.20
Gram Positive Referenced Microbial Activity (staphylococcus aureus; 0.25 % Synthetic Example 5, 1 wt % Tween80, 3 wt % DEGBE, water, pH 7): 0.57
Gram Positive Referenced Microbial Activity (staphylococcus aureus; 0.25 wt % Synthetic Example 5, 1 wt % EcoSurf EH9, 3 wt % DEGBE, water, pH 7): 2.02
Gram Positive Referenced Microbial Activity (staphylococcus aureus; 0.5 wt % Synthetic Example 5, 1 wt % EcoSurf EH9, 3 wt % DEGBE, water, pH 7 (concentration series)): >2.87
Gram Positive Referenced Microbial Activity (staphylococcus aureus; [2]): >1.42
pH range of formulations in which antimicrobial efficacy is maintained (staphylococcus aureus; formulations of table 16): 3-9
Concentration down to which antimicrobial efficacy against staphylococcus aureus is maintained (staphylococcus aureus; formulations of table 17): ≥ 0.063 wt %
Gram Positive Referenced Microbial Activity (staphylococcus aureus; pH 3, 0.5 wt % compound, 1 wt % EcoSurf EH9, 3 wt % DEGBE, 95.5 wt % water): >2.58
Gram Positive Referenced Microbial Activity (staphylococcus aureus; pH 7, 0.5 wt % compound, 1 wt % EcoSurf EH9, 3 wt % DEGBE, 95.5 wt % water (pH series)): >2.8
Gram Positive Referenced Microbial Activity (staphylococcus aureus; pH 9, 0.5 wt % compound, 1 wt % EcoSurf EH9, 3 wt % DEGBE, 95.5 wt % water): 2.53
Gram Negative Referenced Microbial Activity (Gram Negative bacteria; 0.25 % Synthetic Example 5, 1 wt % Crodasinic LS30, 3 wt % DEGBE): 0.41
Gram Negative Referenced Microbial Activity (Gram Negative bacteria; 0.25 % Synthetic Example 5, 1 wt % EH6, 3 wt % DEGBE): >2.58
Gram Negative Referenced Microbial Activity (Gram Negative bacteria; 0.25 % Synthetic Example 5, 1 wt % L24-9, 3 wt % DEGBE): 1.34
Gram Negative Referenced Microbial Activity (Gram Negative bacteria; 0.25 % Synthetic Example 5, 1 wt % Miranol Ultra, 3 wt % DEGBE): 1.92
Gram Negative Referenced Microbial Activity (Gram Negative bacteria; 0.25 % Synthetic Example 5, 1 wt % Plantaren 2000, 3 wt % DEGBE): >2.58
Gram Negative Referenced Microbial Activity (Gram Negative bacteria; 0.25 % Synthetic Example 5, 1 wt % SLS, 3 wt % DEGBE): 0.08
Gram Negative Referenced Microbial Activity (Gram Negative bacteria; 0.25 % Synthetic Example 5, 1 wt % Tween80, 3 wt % DEGBE): 1.37
Stability of the independent solid by 1H NMR [1]: stable for several months

CCCCCCCC[n+]1cccc(/C=C/C(=O)OCCCCCC)c1.[Br-] [Synthetic Example 7, hexyl 3-(3-octylpyridinium)acrylate bromide]
Gram Positive Referenced Microbial Activity (staphylococcus aureus; [2]): >1.42
Stability of the independent solid by 1H NMR [1]: stable for several months

CCCCCCOC(=O)/C=C/c1cccnc1 [Synthetic Example 1, hexyl 3-(3-pyridyl)acrylate]
Gram Positive Referenced Microbial Activity (staphylococcus aureus; [2]): 0.11

CCCCCCOC(=O)/C=C/c1cc[n+](CCCCCC)cc1.[Br-] [Synthetic Example 6, hexyl 3-(4-hexylpyridinium)acrylate bromide]
Gram Positive Referenced Microbial Activity (staphylococcus aureus; [2]): >1.39
Stability of the independent solid by 1H NMR [1]: stable for several months
